Experimental data from patent US20060121449A1, “Method for selection of compounds which inhibit clonal cell growth and use thereof” (priority 2002, published 2006).
“Also recorded” adds a separate entry of the source.

Key:
[1] = test system: BHK21/c13 (normal baby hamster kidney cells); experiment: Clonal growth of normal BHK21/c13 cells in soft agar with growth factors (Exp 3, 6); format: cell-based; parameters: Clonal inhibition: unit not given here; conditions: for Clonal inhibition: BHK21/c13 + insulin
Method: This experiment used BHK21/c13 cells grown in the Falcon plates with 24 wells. Each well received 120000 cells seeded in a top layer of 0.3 ml with 0.8% ultra low gelling temperature agarose (type IX, Sigma). This layer was placed upon a 0.3 ml bottom layer with 3% of the same agarose. The medium contained Eagles MEM and RPMI 1640 with 10% foetal bovine serum. The medium was supplemented with either: 15% conditioned medium (from BHK21/c13 cultures), the serum extender Mito+ or 0.1 i.u. Insulin Actrapid (Novo) or with two or all three of these in combination.
Agar cultures were prepared in wells of 24 well Falcon tissue culture plate. […] The medium contained about equal amounts of Eagle and RPMI 1640 with 10% FBS. Insulin (Actrapid, Novo) was added in a concentration of 0.1 i.u./ml to BHK21/c13 cell cultures only.

[2] = test system: MT4 cells; experiment: Clonal growth of MT4 cells in fluid medium, cross dilution of cells and inhibitor (Exp 14); format: cell-based
Method: Ten fold cell dilutions indicatet in the last row (Table 1) were undertaken in Falcon tissue culture tray using 6×6 wells.
The 4-OH-OPB dilutions were prepared minutes before being used from 20 mM stock solution in DMSO.
The 10 μM and 3 μM dilutions were made first and each of them were diluted further in 1/10 steps.

[3] = test system: S100T1 cell strain (polyoma virus transformed BHK21/c13); experiment: Surface growth (degree of confluence) of S100T1 cells on plastic (Exp 5); format: cell-based, hamster; conditions: 2-4 days
Text: The degree of confluence of polyoma virus transformed BHK21/c13 cells, the S100T1 cell strain, growing on plastic surface was observed 2-4 days after seeding 3000 or […] cells in appropriate wells of a 96 well tissue culture plate (Nunc).

[4] = test system: HSV2; experiment: HSV2 replication and cytopathogenicity in RK13 cells (Exp 12); format: cell-based, Herpes virus 2; conditions: for Coverage of the bottom read after 24 hours: 1 g = 100% coverage of the bottom; for Cytopathogenicity read after 24 hours: 1d is 100% degeneration
Method: RK13 cells and HSV2 v12225 was obtained from Dr. G. Hoddevik, National Institute of Public Health, Oslo, Virus had been stored at −75° C. It was propagated on RK13 cells.
Then the medium, Eagles MEM with 5% FCS, was removed and replaced by new medium.
The inoculated virus was removed by changing the medium the day before titration. […] 1, esperiment 12.

[5] = test system: Ehrlich ascites cells injected subcutaneously; experiment: Subcutaneously transplanted Ehrlich cells in mice, export of metastatic cells (Exp 9); conditions: for Export (migration) of subcutaneously injected Ehrlich cells to peritoneum in treated animals / Solid tumours at subcutaneous injection sites: Exp 9; for Export (migration) of subcutaneously injected Ehrlich cells to peritoneum in treated animals: i.p. injections twice a week, untreated control developed ascites only
Method: This assay involves different numbers of Ehrlich carcinoma cells injected in six subcutaneous locations of mice that were treated by intraperitoneal injections of the compound tested, e.g. 4-OH-OPB (experiment number 9). […] When operating with different cell numbers in the different injection sites, the number of growing tumours indicated which cell number that is necessary for the development of tumours in treated or untreated animals.
Ehrlich ascites was stored in liquid nitrogen on serum with 10% DMSO. The ampoules were thawed in water of 37° C., diluted in serum, and pelleted by low speed centrifugation after the addition of 2 ml FBS, to remove DMSO.
The cells were diluted in volumes of 0.6 ml RPM (pH about 6.9) for each animal with no serum added. The 4-OH-OPB was injected intraperitonally twice a week, see Table 2.

[6] = Exp 9 mouse 1: 10.5 μl 0.2 M i.p. (est. extracell. conc. 281)
[7] = Exp 9 mouse 1: 10.5 μl 0.2 M i.p. twice a week (est. extracell. conc. 281)
[8] = Exp 9 mouse 3: 9.6 μl 20 mM i.p. (27.9)
[9] = Exp 9 mouse 3: 9.6 μl 20 mM i.p. twice a week (27.9)
[10] = Exp 9 mouse 4: 1.37 μl 20 mM i.p. (2.8)

CCCCC1(O)C(=O)N(c2ccccc2)N(c2ccc(O)cc2)C1=O (stereo not drawn) [4-OH-OPB, 4-butyl-4-hydroxy-2(p-hydroxyphenyl)-1-phenyl-3,5-pyrazolidinedione]
Clonal inhibition ([1]; 0.3 μM added after 24 hours, read after 48 hours): 0
Clonal inhibition ([1]; 0.3 μM added immediately, read after 24 hours): 0
Clonal inhibition ([1]; 0.3 μM added immediately, read after 48 hours): 0
Clonal inhibition ([1]; 1 μM added after 24 hours, read after 48 hours): 0
Clonal inhibition ([1]; 1 μM added immediately, read after 24 hours): 0
Clonal inhibition ([1]; 1 μM added immediately, read after 48 hours): 0
Clonal inhibition ([1]; 3 μM added after 24 hours, read after 48 hours): 0
Clonal inhibition ([1]; 3 μM added immediately, read after 24 hours): 0
Clonal inhibition ([1]; 3 μM added immediately, read after 48 hours): 0
Clonal inhibition ([1]; 10 μM added after 24 hours, read after 48 hours): 0
Clonal inhibition ([1]; 10 μM added immediately, read after 24 hours): +
Clonal inhibition ([1]; 10 μM added immediately, read after 48 hours): +
Clonal inhibition ([1]; 30 μM added after 24 hours, read after 48 hours): 0
Clonal inhibition ([1]; 30 μM added immediately, read after 24 hours): +++
Clonal inhibition ([1]; 30 μM added immediately, read after 48 hours): ++
Effect when treated first after 24 hours ([1]; Exp 6, BHK21/c13): no effect was detected
Concentration with small, but significant effect on clonal inhibition ([1]; Exp 6, BHK21/c13, treated immediately on seeding, photograph after 24 hours): ≥ 10 µM
Concentration needed for arresting colony growth: less in cultures with 5000 cells than with 500000 cells [2]: about 2 logs
Concentration giving about full inhibition of growth on surface ([3]; 3000 S100T1 cells/well): 1 µM
Concentration giving about full inhibition of growth on surface ([3]; 10000 S100T1 cells/well): 3 µM
Concentrations with inhibited production of HSV2 [4]: above 0.1 μM
Coverage of the bottom read after 24 hours ([4]; 2 μl/well, 0.1 μM): 1 g
Cytopathogenicity read after 24 hours ([4]; 2 μl/well, 0.1 μM): 0.6 days
Coverage of the bottom read after 24 hours ([4]; 2 μl/well, 0.3 μM): 1 g
Cytopathogenicity read after 24 hours ([4]; 2 μl/well, 0.3 μM): 0.7 days
Coverage of the bottom read after 24 hours ([4]; 2 μl/well, 1 μM): 1 g
Cytopathogenicity read after 24 hours ([4]; 2 μl/well, 1 μM): 0.7 days
Coverage of the bottom read after 24 hours ([4]; 2 μl/well, 3 μM): 0.8 g
Cytopathogenicity read after 24 hours ([4]; 2 μl/well, 3 μM): 0.95 days
Coverage of the bottom read after 24 hours ([4]; 2 μl/well, 10 μM): 0.9 g
Cytopathogenicity read after 24 hours ([4]; 2 μl/well, 10 μM): 0.95 days
Coverage of the bottom read after 24 hours ([4]; 2 μl/well, 30 μM): 0.7 g
Cytopathogenicity read after 24 hours ([4]; 2 μl/well, 30 μM): 0.2 days
Coverage of the bottom read after 24 hours ([4]; 8 μl/well, 0.1 μM): 1 g
Cytopathogenicity read after 24 hours ([4]; 8 μl/well, 0.1 μM): 0.9 days
Coverage of the bottom read after 24 hours ([4]; 8 μl/well, 0.3 μM): 1 g
Cytopathogenicity read after 24 hours ([4]; 8 μl/well, 0.3 μM): 0.9 days
Coverage of the bottom read after 24 hours ([4]; 8 μl/well, 1 μM): 1 g
Cytopathogenicity read after 24 hours ([4]; 8 μl/well, 1 μM): 0.9 days
Coverage of the bottom read after 24 hours ([4]; 8 μl/well, 3 μM): 0.8 g
Cytopathogenicity read after 24 hours ([4]; 8 μl/well, 3 μM): 0.95 days
Coverage of the bottom read after 24 hours ([4]; 8 μl/well, 10 μM): 0.86 g
Cytopathogenicity read after 24 hours ([4]; 8 μl/well, 10 μM): 0.95 days
Coverage of the bottom read after 24 hours ([4]; 8 μl/well, 30 μM): 0.7 g
Cytopathogenicity read after 24 hours ([4]; 8 μl/well, 30 μM): 0.2 days
Inhibition of HSV2 titre at 3 μM ([4]; titration incubated for 3 days): about 3 log
Export (migration) of subcutaneously injected Ehrlich cells to peritoneum in treated animals [5]: did not get ascites with tumour cells, only solid tumours; also recorded: no spread of tumour cells from these subcutaneous injection sites were found in peritoneum; also recorded: effective in stopping migration of tumour cells to peritoneum; also recorded: None of the treated ones got ascites
Export (migration) of subcutaneously injected Ehrlich cells to peritoneum in treated animals ([5]; listed as 4-OH—OPB): Found inhibition on metastatic
Solid tumours at subcutaneous injection sites ([5]; the two mice receiving smaller doses): only one tumour
Solid tumours at subcutaneous injection sites ([5]; very high dose mouse, sites with 6250 and 31250 cells): two tumours of the abdominal wall
Toxic effects of the very high dose ([5]; Exp 9 mouse 1: 10.5 μl 0.2 M i.p.): caused adherences in peritoneum; also recorded: liver, spleen and possibly kidneys became affected by its toxicity; also recorded: died of haemorrhagic effusion in thorax
Day 21, pathology [5, 6]: Ascites
Pathology after 24 days [5, 6]: Ascites or thoracic fluid did not contain Ehrlich cells
Pathology after 24 days ([5]; Exp 9 mouse 1: 10.5 μl 0.2 M i.p. (est. extracell. conc. 281), listed as 4-OH—OPB): number developed solid tumours; also recorded: Toxic ascites and thoracic
Clinical status, day 14 [5, 7]: No Ehrlich
Day 3-7, clinical status [5, 7]: no tumour
Weight, day 18 ([5]; Exp 9 mouse 1: 10.5 μl 0.2 M i.p. twice a week, initial weight 26.2): 37.4 g
Animal weight after 24 days ([5]; Exp 9 mouse 1: 10.5 μl 0.2 M i.p., initial weight 26.2): 40.2 g
Day 21, pathology [5, 8]: Lens sized
Pathology after 24 days [5, 8]: Ascites or organ tumours were not found
Pathology after 24 days ([5]; Exp 9 mouse 3: 9.6 μl 20 mM i.p. (27.9), listed as 4-OH—OPB): Pea sized tumour in left
Clinical status, day 14 [5, 9]: No tumour
Clinical status, day 18 [5, 9]: No tumour
Animal weight after 24 days ([5]; Exp 9 mouse 3: 9.6 μl 20 mM i.p., initial weight 24.1): 25 g
Day 21, pathology [5, 10]: Small tumour
Pathology after 24 days [5, 10]: slightly observable tumour in the abdominal wall
Pathology after 24 days ([5]; Exp 9 mouse 4: 1.37 μl 20 mM i.p. (2.8), listed as 4-OH—OPB): days ago, now lens sized.
Animal weight after 24 days ([5]; Exp 9 mouse 4: 1.37 μl 20 mM i.p., initial weight 34.2): 33.5 g. Tumour as discovered 3
Estimated concentration in extracellular fluid at which serious toxicity occurs ([5]; extracellular fluid calculated as 2/7 of the animal weight): 280 µM
